Measurements published in patent US20240019418A1, “RECEPTORS FOR CYCLIC DINUCLEOTIDES AND METHODS FOR SCREENING AGONISTS OR INHIBITORS THEREOF” (GUANGZHOU WINKEY TECHNOLOGY CO., LTD., priority 2017, published 2024).

Molecular target: T1, subtype M of human STING (Homo sapiens, UniProt Q86WV6)
T1 construct: expressed in transfected cells
Test: type 1 interferon promoter luciferase reporter in HEK293T cell lines stably expressing subtype M of human STING
Format: cell-based
Parameters: dose or concentration left out as unconfirmed
Details: c-di-AMP final concentration in complete medium, 16 hour
Procedure: After two weeks, drug resistance strains occurred.
Incubate for 20 min at room temperature. […] After 24 hours, the supernatants were removed.

T1 sequence (Q86WV6 120-379): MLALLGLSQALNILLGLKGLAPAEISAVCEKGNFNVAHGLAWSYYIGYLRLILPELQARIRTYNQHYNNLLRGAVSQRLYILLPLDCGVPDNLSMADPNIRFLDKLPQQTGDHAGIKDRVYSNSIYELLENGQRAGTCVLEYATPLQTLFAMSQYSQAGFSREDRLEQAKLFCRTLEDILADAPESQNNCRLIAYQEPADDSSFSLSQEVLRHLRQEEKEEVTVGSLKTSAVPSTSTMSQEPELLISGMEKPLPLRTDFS

Nc1ncnc2c1ncn2[C@@H]1O[C@@H]2COP(=O)(O)O[C@H]3[C@@H](O)[C@H](n4cnc5c(N)ncnc54)O[C@@H]3COP(=O)(O)O[C@H]2[C@H]1O [c-di-AMP]
luciferase activity compared with control group in which only transfection was performed: significantly increased
